The target of this experiment is T1, human TMEM16A (TMEM16Aabc variant) (Homo sapiens, UniProt Q5XXA6, DEL476-501).
T1 sequence (Q5XXA6 with tags, fused parts or gaps isoform Q5XXA6-5 DEL539-564): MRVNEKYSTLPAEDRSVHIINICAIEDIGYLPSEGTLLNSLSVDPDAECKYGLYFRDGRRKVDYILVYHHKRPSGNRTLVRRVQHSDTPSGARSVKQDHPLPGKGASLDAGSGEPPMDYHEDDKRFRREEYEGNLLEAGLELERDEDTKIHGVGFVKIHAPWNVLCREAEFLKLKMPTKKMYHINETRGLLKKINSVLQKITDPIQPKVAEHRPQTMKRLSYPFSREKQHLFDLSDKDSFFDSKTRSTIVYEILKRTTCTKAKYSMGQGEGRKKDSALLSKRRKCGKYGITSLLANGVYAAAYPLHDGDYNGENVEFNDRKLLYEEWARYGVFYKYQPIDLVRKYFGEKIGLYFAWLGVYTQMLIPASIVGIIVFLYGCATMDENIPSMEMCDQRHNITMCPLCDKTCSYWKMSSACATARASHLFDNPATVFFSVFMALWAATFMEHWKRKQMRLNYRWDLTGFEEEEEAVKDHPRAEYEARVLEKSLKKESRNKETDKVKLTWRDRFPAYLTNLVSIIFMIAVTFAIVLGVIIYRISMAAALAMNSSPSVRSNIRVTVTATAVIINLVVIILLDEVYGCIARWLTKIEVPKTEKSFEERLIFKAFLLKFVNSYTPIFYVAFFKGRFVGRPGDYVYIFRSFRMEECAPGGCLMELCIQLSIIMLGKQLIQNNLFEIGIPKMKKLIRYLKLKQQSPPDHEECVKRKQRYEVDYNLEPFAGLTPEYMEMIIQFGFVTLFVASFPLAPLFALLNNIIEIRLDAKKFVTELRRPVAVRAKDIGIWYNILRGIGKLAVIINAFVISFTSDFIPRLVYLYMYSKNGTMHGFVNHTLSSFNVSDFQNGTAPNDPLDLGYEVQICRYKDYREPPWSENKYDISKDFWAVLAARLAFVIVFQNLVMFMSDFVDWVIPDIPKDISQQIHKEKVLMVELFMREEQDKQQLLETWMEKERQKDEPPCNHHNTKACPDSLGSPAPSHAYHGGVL
Briefly: Automated whole-cell patch clamp (Qpatch) TMEM16A potentiator assay in recombinant FRT cells. It counts as cell-based. The note with it: for activation at 3.33 µM: percentage increase of baseline TMEM16A current, minimum n = 2, read-out: % Potentiation @ 3.33 uM Avg; for pEC50: minimum n = 2. As for the experimental part: Automated Whole-Cell Patch Clamp Assay to Detect TMEM16A Activity in Recombinant Cells
Fisher rat thyroid (FRT) cells stably expressing human TMEM16A (TMEM16Aabc variant; Dr Luis Galietta, Insituto Giannina, Italy) were cultured in T-75 flasks in Hams F-12 media with Coon's modification (Sigma) supplemented with 10% (v/v) foetal bovine serum, penicillin-streptomycin (10,000 U/mL/10000 μg/mL), G-418 (750 μg/mL), L-glutamine (2 mM) and sodium bicarbonate solution (7.5% v/v). At ˜90% confluence cells were harvested for experiments by detachment with a 2:1 (v/v) mixture of Detachin (BMS Biotechnology) and 0.25% (w/v) trypsin-EDTA.
FRT-TMEM16A cells were whole-cell patch clamped using an automated planar patch clamp system (Qpatch, Sophion). Briefly, once high resistance (GOhm) seals were established between the cells and the planar recording array the patch was ruptured using suction pulses to establish the whole-cell recording configuration of the patch clamp technique. The assay employed the following solutions (all reagents Sigma): Intracellular solution (mM): N-methyl-D-glucamine 130, CaCl2 18.2, MgCl2 1, HEPES 10, EGTA 10, BAPTA 20, Mg-ATP 2, pH 7.25, 325 mOsm with sucrose.
Extracellular solution (mM): N-methyl-D-glucamine 130, CaCl2 2, MgCl2 1, HEPES 10, pH 7.3, 320 mOsm with sucrose.
The intracellular solution buffers intracellular calcium at levels required to give ˜20% activation of the maximal TMEM16A mediated current (E020 for calcium ions). Cells were voltage clamped at a holding potential of −70mV and a combined voltage step (to +70 mV)/ramp (−90 my to +90 mV) was applied at 0.05 Hz. After a period of current stabilisation test compounds, solubilised in 100% (v/v) DMSO and subsequently diluted into extracellular solution, were applied to generate a cumulative concentration response curve. Each concentration of test compound was incubated for 5 minutes before addition of the next concentration. After the final concentration was tested a supramaximal concentration of either a known active positive modulator or the TMEM16A inhibitor, CaCCinhA01 (Del La Fuente et al, 2008) was added to define the upper and lower limits of the assay.
Compound activity was quantified by measuring the increase in current upon compound addition and expressing this as a percentage increase of baseline TMEM16A current level.
Peak TMEM16A current at +70 mV was plotted as a function of time over the assay period. Baseline current (IBL) was measured after a period of stabilisation. The increase in current for each compound addition was determined by taking the peak current during the incubation period and subtracting the current from the previous recording period and then expressing this as a percentage of the baseline current (% potentiation). For test compound concentration 1 in FIG. 1 this is:
For each additional concentration tested the increase in current was determined by subtracting the current from the previous incubation period and normalising the baseline value—for test concentration 2 in FIG. 1 this is:
The values for each test concentration were plotted as a cumulative function of concentration eg. for test concentration two this would be the sum of the peak changes measured during concentration one plus concentration two.

Molecules are shown by their SMILES. pEC50: −log10 of the molar value.

As a reminder, the pEC50 is −log10 of the EC50, conventionally taken in molar units. On to `Cc1cc(C(C)(C)O)c(O)cc1CC(=O)Nc1ccnc(C(=O)NC2(C(F)(F)F)CC2)c1` [Example 2.12, 4-[[2-[5-Hydroxy-4-(1-hydroxy-1-methyl-ethyl)-2-methyl-phenyl]acetyl]amino]-N-[1-(trifluoromethyl)cyclopropyl]pyridine-2-carboxamide], for which the activation at 3.33 µM came to 209% and the pEC50 is 7.38.

For the compound `CC(CO)c1cc(F)c(CC(=O)Nc2ccnc(C(=O)NC3(C(F)(F)F)CC3)c2)cc1O` (stereo not shown) [Example 20, 4-[[2-[2-Fluoro-5-hydroxy-4-(2-hydroxy-1-methyl-ethyl)phenyl]acetyl]amino]-N-[1-(trifluoromethyl)cyclopropyl]pyridine-2-carboxamide], the activation at 3.33 µM came to 295% and the pEC50 is 7.00.

Regarding `CC(C)(CO)c1cc(F)c(CC(=O)Nc2ccnc(C(=O)NC3(C#N)CCOCC3)c2)cc1O` [Example 12, N-(4-Cyanotetrahydropyran-4-yl)-4-[[2-[2-fluoro-5-hydroxy-4-(2-hydroxy-1,1-dimethyl-ethyl)phenyl]acetyl]amino]pyridine-2-carboxamide], the activation at 3.33 µM was 150% and the pEC50 was 6.93.

Turning to `CC(C)(C#N)NC(=O)c1cc(NC(=O)Cc2cc(O)c(C(C)(C)CO)cc2F)ccn1` [Example 16.2, N-(1-Cyano-1-methyl-ethyl)-4-[[2-[2-fluoro-5-hydroxy-4-(2-hydroxy-1,1-dimethyl-ethyl)phenyl]acetyl]amino]pyridine-2-carboxamide], the activation at 3.33 µM turned out to be 295% and the negative-log EC50 (pEC50) was 6.94.

For `C#CC(C)(C)NC(=O)c1cc(NC(=O)Cc2cc(O)c(C(C)(C)CO)cc2Cl)ccn1` [Example 15.1, 4-[[2-[2-Chloro-5-hydroxy-4-(2-hydroxy-1,1-dimethyl-ethyl)phenyl]acetyl]amino]-N-(1,1-dimethylprop-2-ynyl)pyridine-2-carboxamide], the activation at 3.33 µM amounted to 190% and the pEC50 was 7.39.

With `CC1(NC(=O)c2cc(NC(=O)Cc3cc(O)c(C(C)(C)CO)cc3F)ccn2)CCOCC1` [Example 16.1, 4-[[2-[2-Fluoro-5-hydroxy-4-(2-hydroxy-1,1-dimethyl-ethyl)phenyl]acetyl]amino]-N-(4-methyltetrahydropyran-4-yl)pyridine-2-carboxamide], the activation at 3.33 µM stood at 214% and the pEC50 was 6.74.

With `CC(C)(O)c1cc(Cl)c(CC(=O)Nc2ccnc(C(=O)NC3(C(F)(F)F)CC3)c2)cc1O` [Example 19, 4-[[2-[2-Chloro-5-hydroxy-4-(1-hydroxy-1-methyl-ethyl)phenyl]acetyl]amino]-N-[1-(trifluoromethyl)cyclopropyl]pyridine-2-carboxamide], the activation at 3.33 µM was determined as 244% and the pEC50 is 7.34.

`CC1(NC(=O)c2cc(NC(=O)Cc3cc(O)c(C(C)(C)CO)cc3F)ccn2)CC(F)(F)C1` [Example 15, N-(3,3-Difluoro-1-methyl-cyclobutyl)-4-[[2-[2-fluoro-5-hydroxy-4-(2-hydroxy-1,1-dimethyl-ethyl)phenyl]acetyl]amino]pyridine-2-carboxamide]: the activation at 3.33 µM is 113% and the negative logarithm of the EC50 (pEC50) is 7.85.

Take `CC(C)(CO)c1cc(F)c(CC(=O)Nc2ccnc(C(=O)NC3(C(F)F)CC3)c2)cc1O` [Example 15.4, N-[1-(Difluoromethyl)cyclopropyl]-4-[[2-[2-fluoro-5-hydroxy-4-(2-hydroxy-1,1-dimethyl-ethyl)phenyl]acetyl]amino]pyridine-2-carboxamide]: the activation at 3.33 µM was found to be 226% and the pEC50 is 7.22.

Turning to `CC(O)(c1cc(F)c(CC(=O)Nc2ccnc(C(=O)NC3(C(F)(F)F)CC3)c2)cc1O)C1CC1` (stereo not shown) [Example 2.8, 4-[[2-[4-(1-Cyclopropyl-1-hydroxy-ethyl)-2-fluoro-5-hydroxy-phenyl]acetyl]amino]-N-[1-(trifluoromethyl)cyclopropyl]pyridine-2-carboxamide], the activation at 3.33 µM was found to be 302% and the pEC50 is 7.11.

For `CC(C#N)(CO)NC(=O)c1cc(NC(=O)Cc2cc(O)c(C(C)(C)C)cc2F)ccn1` (stereo not shown) [Example 1.6], the activation at 3.33 µM is 121% and the pEC50 was 7.40.

As for `C#CC(C)(C)NC(=O)c1cc(NC(=O)Cc2cc(O)c(C(C)(C)CO)cc2F)ccn1` [Example 16, N-(1,1-Dimethylprop-2-ynyl)-4-[[2-[2-fluoro-5-hydroxy-4-(2-hydroxy-1,1-dimethyl-ethyl)phenyl]acetyl]amino]pyridine-2-carboxamide], the activation at 3.33 µM came out at 74.5% and the negative-log EC50 (pEC50) is 7.72.

`CC(C)(CO)c1cc(F)c(CC(=O)Nc2ccnc(C(=O)NC3(C(F)(F)F)COC3)c2)cc1O` [Example 12.1, 4-[[2-[2-Fluoro-5-hydroxy-4-(2-hydroxy-1,1-dimethyl-ethyl)phenyl]acetyl]amino]-N-[3-(trifluoromethyl)oxetan-3-yl]pyridine-2-carboxamide]: the activation at 3.33 µM came out at 406% and the pEC50 is 7.28.

As to `CC(C)(CO)c1cc(F)c(CC(=O)Nc2ccnc(C(=O)NC3(CO)CCC3)c2)cc1O` [Example 12.4, 4-[[2-[2-Fluoro-5-hydroxy-4-(2-hydroxy-1,1-dimethyl-ethyl)phenyl]acetyl]amino]-N-[1-(hydroxymethyl)cyclobutyl]pyridine-2-carboxamide], the activation at 3.33 µM turned out to be 342% and the pEC50 is 6.67.

Regarding `O=C(Cc1cc(O)c(C2(O)CCOCC2)cc1F)Nc1ccnc(C(=O)NC2(C(F)(F)F)CC2)c1` [Example 13, 4-[[2-[2-Fluoro-5-hydroxy-4-(4-hydroxytetrahydropyran-4-yl)phenyl]acetyl]amino]-N-[1-(trifluoromethyl)cyclopropyl]pyridine-2-carboxamide], the activation at 3.33 µM was 196% and the pEC50 was 6.66.

In the case of `CC(C)(O)c1cc(F)c(CC(=O)Nc2ccnc(C(=O)NC3(C(F)(F)F)CC3)c2)c(Cl)c1O` [Example 18, 4-[[2-[2-Chloro-6-fluoro-3-hydroxy-4-(1-hydroxy-1-methyl-ethyl)phenyl]acetyl]amino]-N-[1-(trifluoromethyl)cyclopropyl]pyridine-2-carboxamide], the activation at 3.33 µM stood at 315% and the pEC50 was 6.57.

As to `CC(C)(CO)NC(=O)c1cc(NC(=O)Cc2cc(O)c(C(C)(C)CO)cc2F)ccn1` [Example 12.3, 4-[[2-[2-Fluoro-5-hydroxy-4-(2-hydroxy-1,1-dimethyl-ethyl)phenyl]acetyl]amino]-N-(2-hydroxy-1,1-dimethyl-ethyl)pyridine-2-carboxamide], the activation at 3.33 µM is 97.2% and the pEC50 is 6.62.
